The source made the active and inactive calls. The calls are words filed in the database; no cut-off is given here.
Legend:
[1] = biological target: Mitogen-activated protein kinase 9 (Homo sapiens, UniProt P45984); assay: Inhibition of JNK2 (unknown origin) using biotinylated ATF2 by HTRF method
[2] = biological target: Mitogen-activated protein kinase 10 (Homo sapiens, UniProt P53779); assay: Inhibition of JNK3 (unknown origin) using biotinylated ATF2 by HTRF method
[3] = Inhibition of JNK in rat INS cells assessed as inhibition of c-jun phosphorylation; type: cell-based
Rattus norvegicus [4] = assay: (§1) AUC in Sprague-Dawley rat at 2 mg/kg, po by LC-MS/MS analysis; type: ADME, organism-based, Plasma; set-up: dose 2 mg/kg, route oral; conditions: in vivo
[5] = Half life in Sprague-Dawley rat at 1 mg/kg, iv and 2 mg/kg, po by LC-MS/MS analysis; type: ADME, organism-based; conditions: in vivo
[6] = Plasma concentration in C57Bl6 mouse at 10 mg/kg after 2 hrs by LC-MS/MS analysis; type: ADME, organism-based; set-up: dose 10 mg/kg
Brain = assay: Drug penetration in C57Bl6 mouse brain at 10 mg/kg by LC-MS/MS analysis relative to control; type: ADME, organism-based; set-up: dose 10 mg/kg; conditions: in vivo
Rattus norvegicus [7] = assay: (§2) Oral bioavailability in Sprague-Dawley rat at 2 mg/kg by LC-MS/MS analysis; type: ADME, organism-based; conditions: in vivo
[8] = Drug uptake in C57Bl6 mouse brain at 10 mg/kg after 2 hrs by LC-MS/MS analysis; type: ADME, organism-based; set-up: dose 10 mg/kg; conditions: read-out: Drug uptake
[9] = as §1; type: ADME, organism-based, Plasma; set-up: dose 2 mg/kg, route oral; conditions: Sprague-Dawley, plasma
[10] = Clearance in Sprague-Dawley rat at 1 mg/kg, iv and 2 mg/kg, po by LC-MS/MS analysis; type: ADME, organism-based; conditions: in vivo
[11] = as §2; type: ADME, organism-based; conditions: Sprague-Dawley, in vivo
[12] = biological target: T1, c-Jun N-terminal kinase, JNK (Homo sapiens, UniProt P45983+P53779+P45984); conditions: U-87MG ATCC
Description: Inhibition of JNK in human U87MG cells overexpressing EGFR V3 mutant assessed as inhibition of c-jun phosphorylation at 0.1 to 3 uM after 6 hrs by Western blotting analysis

[13] = biological target: T1, c-Jun N-terminal kinase, JNK; assay: Inhibition of JNK in human U87MG cells overexpressing EGFR V3 mutant assessed as inhibition of c-jun phosphorylation after 6 hrs by ELISA; type: cell-based; conditions: u-87mg atcc

Mitogen-activated protein kinase 10, sequence (P53779 whole entry): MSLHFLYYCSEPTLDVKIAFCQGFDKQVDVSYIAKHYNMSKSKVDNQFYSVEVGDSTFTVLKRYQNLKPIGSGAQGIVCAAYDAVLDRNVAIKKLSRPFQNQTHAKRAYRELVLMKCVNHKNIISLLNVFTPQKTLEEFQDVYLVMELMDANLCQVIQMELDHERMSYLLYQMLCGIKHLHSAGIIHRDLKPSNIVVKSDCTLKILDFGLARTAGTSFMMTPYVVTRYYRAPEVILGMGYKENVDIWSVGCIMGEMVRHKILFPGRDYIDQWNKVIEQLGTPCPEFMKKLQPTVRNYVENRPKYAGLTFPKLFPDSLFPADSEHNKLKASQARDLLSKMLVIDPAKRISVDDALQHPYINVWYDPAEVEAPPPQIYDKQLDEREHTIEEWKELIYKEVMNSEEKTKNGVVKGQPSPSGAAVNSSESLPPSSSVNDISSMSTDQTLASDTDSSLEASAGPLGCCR
Mitogen-activated protein kinase 9, sequence (P45984 whole entry): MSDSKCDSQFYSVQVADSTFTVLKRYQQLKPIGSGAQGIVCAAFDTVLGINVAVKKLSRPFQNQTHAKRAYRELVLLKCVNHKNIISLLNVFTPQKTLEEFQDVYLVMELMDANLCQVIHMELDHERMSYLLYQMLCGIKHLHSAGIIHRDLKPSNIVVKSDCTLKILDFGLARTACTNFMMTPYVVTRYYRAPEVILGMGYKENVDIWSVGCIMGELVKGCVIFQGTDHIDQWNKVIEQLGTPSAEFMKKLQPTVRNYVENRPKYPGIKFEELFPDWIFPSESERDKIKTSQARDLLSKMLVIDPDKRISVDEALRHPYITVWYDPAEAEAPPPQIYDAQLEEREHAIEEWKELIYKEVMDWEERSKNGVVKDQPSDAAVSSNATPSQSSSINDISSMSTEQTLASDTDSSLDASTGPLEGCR

Structure (SMILES)	IC50 [1] [µM]	IC50 [2] [µM]	other results
CNC(=O)c1ccccc1Nc1cc(Nc2ccc(N3CCOCC3)cc2)ncc1C(F)(F)F	0.09	0.061	–
COc1cc(N2CCOCC2)ccc1Nc1cc(Nc2ccccc2C(N)=O)ccn1	–	0.374	–
COc1cc(N2CCOCC2)ccc1Nc1ncc(Cl)c(Nc2ccccc2C(N)=O)n1	0.003	0.00078	IC50 [3]: 0.003 µM; AUC (Rattus norvegicus [4]): 400 nM·h; half-life [5]: 1 h; concentration at 2 h [6]: 5.5 µM; Drug uptake (Brain): 17%; F (Rattus norvegicus [7]): 30%; concentration at 2 h [8]: 0.93 µM
NC(=O)c1ccccc1Nc1nc(Nc2ccc(N3CCOCC3)c(F)c2)ncc1Cl	0.00051	0.00025	–
CNC(=O)c1ccccc1Nc1cc(Nc2ccc(N3CCOCC3)cc2OC)ncc1Br	0.082	0.068	–
CNC(=O)c1ccccc1Nc1cc(Nc2ccc(N3CCOCC3)cc2OC)ncc1C#N	> 3	0.51	–
O=C1NCc2cccc(Nc3ccnc(Nc4ccc(N5CCOCC5)cc4)c3)c21	–	1.8	–
O=C(NCc1ccccc1)c1ccccc1Nc1ccnc(Nc2ccc(N3CCOCC3)cc2)c1	–	> 20	–
Cc1cc(Nc2ncc(Cl)c(Nc3ccccc3C(N)=O)n2)ccc1N1CCOCC1	0.00069	0.00031	–
COc1cc(N2CCOCC2)ccc1Nc1cc(Nc2ccccc2C(=O)N(C)C)c(C(F)(F)F)cn1	–	1	–
CNC(=O)c1ccccc1Nc1cc(Nc2ccc(N3CCOCC3)cc2OC)ncc1C(F)(F)F [VS-4718]	0.12	0.16	IC50 [3]: > 3 µM
NC(=O)c1ccccc1Nc1nc(Nc2ccc(Cl)cc2)ncc1Cl	0.034	0.0025	–
NC(=O)c1ccccc1Nc1nc(Nc2ccc(N3CCCC3=O)cc2)ncc1Cl	0.00024	0.00016	AUC [9]: 200 nM·h; half-life [5]: 0.6 h; concentration at 2 h [6]: 0.68 µM; clearance [10]: 0.6 L/h/kg; Drug uptake (Brain): 2%; bioavailability [11]: 3%; concentration at 2 h [8]: 0.015 µM
O=C(Nc1ccccc1)c1ccccc1Nc1ccnc(Nc2ccc(N3CCOCC3)cc2)c1	–	12	–
CN(C)CCNC(=O)c1ccccc1Nc1ccnc(Nc2ccc(N3CCOCC3)cc2)c1	–	> 20	–
NC(=O)c1ccccc1Nc1nc(Nc2ccc(N3CCOCC3)cc2F)ncc1Cl	0.0006	0.0003	–
NC(=O)c1ccccc1Nc1ccnc(Nc2ccc(N3CCOCC3)cc2)c1	0.329	0.16	–
NC(=O)c1ccccc1Nc1nc(Nc2ccc(N3CCOCC3)cc2)ncc1Cl	0.001	0.00028	AUC [9]: 100 nM·h; half-life [5]: 1 h; concentration at 2 h [6]: 0.84 µM; clearance [10]: 3.54 L/h/kg; Drug uptake (Brain): 100%; bioavailability [11]: 8%; concentration at 2 h [8]: 0.83 µM
CNC(=O)c1ccccc1Nc1nc(Nc2ccc(N3CCOCC3)cc2OC)ncc1Cl	–	–	IC50 [3]: 0.485 µM; inhibition [12]: Active
CNC(=O)c1ccccc1Nc1ccnc(Nc2ccc(N3CCOCC3)cc2)c1	–	3.1	–
N#Cc1ccc(Nc2ncc(Cl)c(Nc3ccccc3C(N)=O)n2)cc1	0.00071	0.00077	–
COc1ccc(Nc2ncc(Cl)c(Nc3ccccc3C(N)=O)n2)cc1	0.001	0.00042	–
NC(=O)c1ccccc1Nc1nc(Nc2ccc(F)cc2)ncc1Cl	0.0025	0.0012	–
COc1cc(Nc2ncc(Cl)c(Nc3ccccc3C(N)=O)n2)ccc1N1CCOCC1	0.00068	0.00028	EC50 [13]: 0.023 µM; AUC (Rattus norvegicus [4]): 1300 nM·h; half-life [5]: 1 h; concentration at 2 h [6]: 2.6 µM; inhibition [12]: Active; Drug uptake (Brain): 31%; F (Rattus norvegicus [7]): 17%; concentration at 2 h [8]: 0.8 µM
CNC(=O)c1ccccc1Nc1cc(Nc2ccc(N3CCOCC3)cc2OC)ncc1F	0.59	0.32	–
COc1cc(Nc2cc(Nc3ccccc3C(N)=O)ccn2)ccc1N1CCOCC1	–	0.132	–
CNC(=O)c1ccccc1Nc1cc(Nc2ccc(N3CCOCC3)cc2OC)ncc1Cl	0.05	0.083	–
